Reference: US8362018B2, “Substituted imidazo[1,2-a]pyrazine compounds useful for the treatment of viral infections” (Biofocus DPI, Ltd., priority 2007, dated 2013)
pEC50: −log10 of the molar value.

What was measured:
[1] = cytotoxicity measurement (CC50), Table 13; assay type: cell-based; settings: human, Huh7 cells
[2] = test system: HCV replicon; assay: anti-viral assay (EC50), Table 13; assay type: cell-based; settings: anti-viral assays
Excerpt: The ability of a compound to inhibit HCV replication can be measured in vitro or using animal models using models and assays well known to those of skill in the art (e.g. Pietschmann et al, Clin Liver Dis. 7(1)c23-43, 2003). In vitro techniques for measuring the ability of a compound to inhibit HCV replication involve using HCV or an HCV replicon. Because HCV is difficult to grow in culture, particular in vitro techniques employ an HCV replicon.
An HCV replicon is an RNA molecule able to autonomously replicate in a cultured cell, such as Huh7. The HCV replicon expresses the HCV derived components of the replication machinery and contains cis-elements required for replication in a cultured cell. […]

[3] = test system: HRV-2; assay: antiviral activity, HRV-2 in HeLa cells (Table 15); assay type: cell-based, human rhinoviruses (HRV); settings: Rhinovirus A, HRV2; HRV-2 (HeLa cells)
[4] = test system: HeLa cells; assay: cytotoxicity CC50 in HeLa cells (Table 15); assay type: cell-based
[5] = cytotoxicity CC50 in HeLa cells (Table 15); assay type: cell-based; settings: human, HRV-2 column
[6] = test system: HRV clinical isolate; assay: antiviral activity, HRV clinical isolate in HeLa cells (Table 15); assay type: cell-based, human rhinoviruses (HRV); settings: Enterovirus
[7] = test system: HRV-14; assay: antiviral activity, HRV-14 in HeLa cells (Table 15); assay type: cell-based, human rhinovirus 14 (HRV-14); settings: Rhinovirus B, HRV14; HRV-14 (HeLa cells)
[8] = test system: Huh7; assay: cytotoxicity measurement (CC50), Table 13; assay type: cell-based

## NS(=O)(=O)c1ccc(CNc2nccn3c(-c4cccc(O)c4)cnc23)cc1 [Compound 65]
[1]
  CC50: < 35 µM
[2]; Hepatitis C virus
  pEC50: 4.70 to 6.00

## CS(=O)(=O)Nc1cccc(-c2cnc3c(NCc4cccnc4)nccn23)c1 [Compound 77]
[1]
  CC50: < 35 µM
[2]; Hepatitis C virus
  pEC50: 4.70 to 6.00

## Cc1nc2c(NCc3ccc(S(N)(=O)=O)cc3)nccn2c1-c1ccc(O)cc1 [Compound 104, 4-{[3-(4-Hydroxy-phenyl)-2-methyl-imidazo[1,2-a]pyrazin-8-ylamino]-methyl}-benzenesulfonamide]
[1]
  CC50: > 35 µM
[2]; Hepatitis C virus
  pEC50: 4.70 to 6.00

## CC(C)(C)c1ccc(CNc2nccn3c(-c4ccc(O)cc4)cnc23)cc1 [Compound 98]
[1]
  CC50: < 35 µM
[2]; Hepatitis C virus
  pEC50: 4.70 to 6.00

## OCc1ccc(-c2cnc3c(NCCc4ccncc4)nccn23)cc1 [Compound 3]
[1]
  CC50: > 35 µM
[2]; Hepatitis C virus
  pEC50: < 4.70

## CNC(=O)c1ccc(CNc2nccn3c(-c4ccc(O)cc4)cnc23)cc1 [Compound 49]
[1]
  CC50: < 35 µM
[2]; Hepatitis C virus
  pEC50: 4.70 to 6.00

## CNS(=O)(=O)c1ccc(CNc2nccn3c(-c4ccc(O)cc4)cnc23)cc1 [Compound 103]
[1]
  CC50: > 35 µM
[2]; Hepatitis C virus
  pEC50: 4.70 to 6.00

## COc1ccc(-c2cnc3c(NCCS(N)(=O)=O)nccn23)cc1OC [Compound 43]
[1]
  CC50: > 35 µM
[2]; Hepatitis C virus
  pEC50: < 4.70

## CN1CCN(c2ccc(-c3cnc4c(Nc5cccc(OC(F)(F)C(F)F)c5)nccn34)cn2)CC1 [Compound 63]
[1]
  CC50: < 35 µM
[2]; Hepatitis C virus
  pEC50: 4.70 to 6.00

## Cc1nc2c(NCc3ccc(S(N)(=O)=O)cc3)nccn2c1-c1ccc(O)c(F)c1 [Compound 106]
[1]
  CC50: > 35 µM
[3]
  EC50: < 1 µg/mL
[4]; HRV clinical isolate column
  CC50(μg/mL): * (>35 μg/mL)
[4]; HRV-14 column
  CC50(μg/mL): * (>35 μg/mL)
[5]
  CC50: > 35 µg/mL
[6]
  EC50: < 1 µg/mL
[7]
  EC50: < 1 µg/mL
[2]; Hepatitis C virus
  pEC50: > 6.00

## NS(=O)(=O)c1ccc(CNc2nccn3c(-c4cccc(F)c4)cnc23)cc1 [Compound 67]
[1]
  CC50: < 35 µM
[2]; Hepatitis C virus
  pEC50: 4.70 to 6.00

## COc1ccc2cc(-c3cnc4c(NCc5ccc(S(N)(=O)=O)cc5)nccn34)ccc2c1 [Compound 55]
[1]
  CC50: < 35 µM
[2]; Hepatitis C virus
  pEC50: 4.70 to 6.00

## Oc1ccc(-c2cnc3c(NCc4cccnc4)nccn23)cc1 [Compound 58]
[1]
  CC50: < 35 µM
[2]; Hepatitis C virus
  pEC50: 4.70 to 6.00

## NS(=O)(=O)c1ccc(CNc2nccn3c(-c4ccc(CO)o4)cnc23)cc1 [Compound 46]
[1]
  CC50: > 35 µM
[2]; Hepatitis C virus
  pEC50: 4.70 to 6.00

## COc1ccc(-c2cnc3c(NCCCn4ccnc4)nccn23)cc1OC [Compound 30]
[1]
  CC50: > 35 µM
[2]; Hepatitis C virus
  pEC50: < 4.70

## N#Cc1ccc(CNc2nccn3c(-c4ccc(O)cc4)cnc23)cc1 [Compound 42]
[1]
  CC50: < 35 µM
[2]; Hepatitis C virus
  pEC50: 4.70 to 6.00

## O=C(O)c1ccc(CNc2nccn3c(-c4ccc(O)cc4)cnc23)cc1 [Compound 52]
[1]
  CC50: > 35 µM
[2]; Hepatitis C virus
  pEC50: < 4.70

## Cc1cc(-c2cnc3c(NCc4ccc(S(N)(=O)=O)cc4)nccn23)cc(C)c1O [Compound 41]
[1]
  CC50: < 35 µM
[2]; Hepatitis C virus
  pEC50: 4.70 to 6.00

## Cc1nc2c(NCc3ccc(S(N)(=O)=O)cc3)nccn2c1-c1ccc(O)c([N+](=O)[O-])c1 [Compound 107]
[1]
  CC50: > 35 µM
[2]; Hepatitis C virus
  pEC50: 4.70 to 6.00

## NS(=O)(=O)c1ccc(CNc2nccn3c(-c4ccc(F)c(Cl)c4)cnc23)cc1 [Compound 10]
[1]
  CC50: > 35 µM
[2]; Hepatitis C virus
  pEC50: 4.70 to 6.00

## Cc1cnc(NCc2ccc(S(N)(=O)=O)cc2)c2ncc(-c3ccc(O)cc3)n12 [Compound 108, 4-{[3-(4-Hydroxy-phenyl)-5-methyl-imidazo[1,2-a]pyrazin-8-ylamino]-methyl}-benzenesulfonamide]
[1]
  CC50: < 35 µM
[2]; Hepatitis C virus
  pEC50: > 6.00

## NS(=O)(=O)c1ccc(CNc2nccn3c(-c4ccc(CO)s4)cnc23)cc1 [Compound 45]
[1]
  CC50: > 35 µM
[2]; Hepatitis C virus
  pEC50: 4.70 to 6.00

## COc1ccc(-c2cnc3c(NCCc4ccncc4)nccn23)cc1OC [Compound 62]
[1]
  CC50: < 35 µM
[2]; Hepatitis C virus
  pEC50: 4.70 to 6.00

## Oc1ccc(-c2cnc3c(NCc4cccs4)nccn23)cc1 [Compound 59]
[1]
  CC50: < 35 µM
[2]; Hepatitis C virus
  pEC50: 4.70 to 6.00

## COc1ccc(-c2cnc3c(NCc4ccc(S(N)(=O)=O)cc4)nccn23)cc1 [Compound 16]
[1]
  CC50: > 35 µM
[2]; Hepatitis C virus
  pEC50: 4.70 to 6.00

## Oc1cccc(-c2cnc3c(NCCc4cccnc4)nccn23)c1 [Compound 85]
[1]
  CC50: < 35 µM
[2]; Hepatitis C virus
  pEC50: 4.70 to 6.00

## COc1ccc(-c2cnc3c(NCc4ccccc4)nccn23)cc1OC [Compound 14]
[1]
  CC50: > 35 µM
[2]; Hepatitis C virus
  pEC50: 4.70 to 6.00

## NC(=O)c1ccc(CNc2nccn3c(-c4ccc(O)cc4)cnc23)cc1 [Compound 48]
[1]
  CC50: > 35 µM
[2]; Hepatitis C virus
  pEC50: 4.70 to 6.00

## Oc1ccc(Nc2nccn3c(-c4cccc(F)c4)cnc23)cc1 [Compound 82]
[1]
  CC50: < 35 µM
[2]; Hepatitis C virus
  pEC50: 4.70 to 6.00

## COCCCNc1nccn2c(-c3ccc(OC)c(OC)c3)cnc12 [Compound 78]
[1]
  CC50: < 35 µM
[2]; Hepatitis C virus
  pEC50: 4.70 to 6.00

## COc1ccc(CNc2nccn3c(-c4ccc(O)cc4)cnc23)cc1 [Compound 40]
[1]
  CC50: > 35 µM
[2]; Hepatitis C virus
  pEC50: 4.70 to 6.00

## Cc1cc(O)ccc1-c1cnc2c(NCc3ccc(S(N)(=O)=O)cc3)nccn12 [Compound 33]
[1]
  CC50: > 35 µM
[2]; Hepatitis C virus
  pEC50: 4.70 to 6.00

## NS(=O)(=O)c1cccc(CNc2nccn3c(-c4ccc(O)cc4)cnc23)c1 [Compound 95, 3-{[3-(4-Hydroxy-phenyl)-imidazol[1,2-a]pyrazin-8-ylamino]-methyl}-benzenesulfonamide]
[8]
  CC50: < 35 µM
[2]
  pEC50: 4.70 to 6.00

## Cc1cn2c(-c3ccc(O)cc3)cnc2c(NCc2ccc(S(N)(=O)=O)cc2)n1 [Compound 110, 4-{[3-(4-Hydroxy-phenyl)-6-methyl-imidazo[1,2-a]pyrazin-8-ylamino]-methyl}-benzenesulfonamide]
[1]
  CC50: < 35 µM
[2]; Hepatitis C virus
  pEC50: > 6.00

## Oc1ccc(-c2cnc3c(NCc4ccc5c(c4)OCO5)nccn23)cc1 [Compound 61]
[1]
  CC50: < 35 µM
[2]; Hepatitis C virus
  pEC50: 4.70 to 6.00

## Cc1cn2c(-c3ccc(O)c(F)c3)cnc2c(NCc2ccc(S(N)(=O)=O)cc2)n1 [Compound 111]
[1]
  CC50: > 35 µM
[2]; Hepatitis C virus
  pEC50: > 6.00

## CC(C)c1ccc(Nc2nccn3c(-c4cccc(NS(C)(=O)=O)c4)cnc23)cc1 [Compound 70]
[1]
  CC50: < 35 µM
[2]; Hepatitis C virus
  pEC50: 4.70 to 6.00

## CCNS(=O)(=O)c1ccc(CNc2nccn3c(-c4ccc(O)cc4)cnc23)cc1 [Compound 102]
[1]
  CC50: > 35 µM
[2]; Hepatitis C virus
  pEC50: 4.70 to 6.00

## COc1cc(-c2cnc3c(NCc4ccc(S(N)(=O)=O)cc4)nc(C)cn23)ccc1O [Compound 112]
[1]
  CC50: < 35 µM
[2]; Hepatitis C virus
  pEC50: > 6.00

## COc1ccccc1-c1cnc2c(NCc3ccc(S(N)(=O)=O)cc3)nccn12 [Compound 86]
[1]
  CC50: < 35 µM
[2]; Hepatitis C virus
  pEC50: 4.70 to 6.00

## CC(C)c1ccc(Nc2nccn3c(-c4ccc(O)cc4)cnc23)cc1 [Compound 69]
[1]
  CC50: < 35 µM
[2]; Hepatitis C virus
  pEC50: 4.70 to 6.00

## COc1ccc(-c2cnc3c(NCc4cccnc4)nccn23)cc1OC [Compound 7]
[1]
  CC50: > 35 µM
[2]; Hepatitis C virus
  pEC50: 4.70 to 6.00

## CNS(=O)(=O)c1ccc(CNc2nccn3c(-c4ccc(OC)cc4)cnc23)cc1 [Compound 100]
[1]
  CC50: > 35 µM
[2]; Hepatitis C virus
  pEC50: 4.70 to 6.00

## Oc1ccc(-c2cnc3c(NCCc4ccncc4)nccn23)cc1 [Compound 2]
[1]
  CC50: < 35 µM
[2]; Hepatitis C virus
  pEC50: 4.70 to 6.00

## N#Cc1cc(-c2cnc3c(NCc4ccc(S(N)(=O)=O)cc4)nccn23)ccc1O [Compound 51]
[1]
  CC50: > 35 µM
[2]; Hepatitis C virus
  pEC50: < 4.70

## Cc1cccc(CNc2nccn3c(-c4ccc(O)cc4)cnc23)c1 [Compound 35]
[1]
  CC50: < 35 µM
[2]; Hepatitis C virus
  pEC50: 4.70 to 6.00

## COc1cc(-c2cnc3c(NCc4ccc(S(N)(=O)=O)cc4)ncc(C)n23)ccc1O [Compound 109]
[1]
  CC50: < 35 µM
[2]; Hepatitis C virus
  pEC50: > 6.00
